From patent US12152030B2 (NOVOSTAR PHARMACEUTICALS, LTD., priority 2019, dated 2024) come the findings set out here.

The term IC50 denotes the concentration that inhibits the measured activity by half. Broadly, the inhibition is the share of the control response that was lost under treatment. High values mean a strong effect, low ones a weak effect. By Kd is commonly meant the concentration at which binding is half-saturated.

Where a name gives a salt, the structure may show the parent alone.

One test deals with MNK1 (Homo sapiens, UniProt Q9BUB5). Kind of test: MNK biological enzyme assay (HTRF kinase assay), MNK1. In kind it is biochemical. Details: purchased ThermoFisher PV6023. The note with it: 3 ng/ul MNK1, 1 μM STK1 peptide, 100 μM ATP. The protocol:
(§1) A HTRF kinase assay kit (Cisbio, catalog number 62ST1PEB) was used to determine the MNK inhibitory activity of the compounds. All kinase reactions were performed in the reaction buffer (provided in the kit). The final MNK1 reaction involved 3 ng/ul recombinant MNK1 (ThermoFisher, PV6023), 1 μM MNK substrate peptide STK1 (provided in the kit), 100 μM ATP, and different concentrations of the inhibitory compounds of interest. The final MNK2 reaction involved 1 ng/μl recombinant MNK2 (ThermoFisher, PV5607), 1 μM MNK substrate peptide STK1 (provided in the kit), 100 μM ATP, and different concentrations of the inhibitory compounds of interest. The final DMSO concentration in each of the reactions was 1%.
(§2) The kinase reaction was performed in a final volume of 10 μl in a 384-well white flat-bottomed polystyrene plate. The MNK1/2 enzyme was pre-incubated with the compound and substrate peptide for 5 minutes, and then ATP was added thereto. After addition of ATP, the kinase reaction was incubated at 25° C. for 120 minutes or 60 minutes. The reaction was subsequently terminated by adding 5 μl of EU3+ substrate antibody detection reagent and 5 μl of XL665 detection reagent, and incubating for another 60 minutes. The luminescent signal was detected with an EnVision microplate reader counter (Perkin Elmer), and the signal from 10-point dilution series of the compounds was used to calculate the compound concentration (IC50) required to achieve 50% inhibition of enzyme activity.
(§3) In this respect, IC50 values which are less than 0.01 μM were marked as “+++”, which are from 0.01 to 0.1 μM were marked as “++”, and which are greater than 0.1 and up to 10.0 μM were marked as “+”, and NA meant “not detected”.
(In general: TR-FRET usually uses a lanthanide donor and a delayed reading to cut background.)

In another test the target is T1, STK17A/DRAK1 (Homo sapiens, UniProt Q9UEE5).
T1 sequence (Q9UEE5 1-414): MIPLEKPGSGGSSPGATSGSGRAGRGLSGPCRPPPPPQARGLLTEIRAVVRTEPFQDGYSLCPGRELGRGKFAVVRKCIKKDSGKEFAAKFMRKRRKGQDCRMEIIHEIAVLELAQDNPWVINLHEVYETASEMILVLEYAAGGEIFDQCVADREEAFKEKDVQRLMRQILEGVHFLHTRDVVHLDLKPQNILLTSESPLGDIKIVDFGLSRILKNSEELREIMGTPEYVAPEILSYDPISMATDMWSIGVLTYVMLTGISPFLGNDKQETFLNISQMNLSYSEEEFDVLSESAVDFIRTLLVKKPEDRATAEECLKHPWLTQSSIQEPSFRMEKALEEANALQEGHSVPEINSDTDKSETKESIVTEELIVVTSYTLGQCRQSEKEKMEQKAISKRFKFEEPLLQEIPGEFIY
Kind of test: KinomeScan, DRAK1. It is filed as binding. The source says: KinomeScan was used to determine the kinase selectivity of compound 2.

The test system of a further test is Phosphorylated eIF4E. Kind of test: Intracellular peIF4E signaling assay. In kind it is cell-based. As to conditions: 2 h; two hours incubation at 37° C.; read-out: peIF4E signaling cell assay IC50. The protocol:
Phosphorylated eIF4E was determined using CisBio peIF4E assay kit (CisBio, catalog number 64EF4PEG). The cells were plated in a 96-well cell culture plate in a volume of 90 μL, and the number of cells per well was 5*10^4. The compounds (10×) were subjected to 3-fold serial dilution, added to the cell plate in a volume of 10 μL with the final DMSO concentration being 1%, and incubated at 37° C. for two hours. The cell plate was centrifuged at 300 g for 5 minutes, and the cell supernatant was carefully removed. The cell plate was immediately added with 50 μL of cell lysis buffer […] and incubated at 25° C. with shaking for at least 30 minutes. After homogenization by pipetting, 16 μL of cell lysate was transferred from the 96-well cell culture plate to a 384-well small-volume microwell plate. According to the kit instruction, an antibody mixture solution was prepared with a detection buffer, and was added in a volume of 4 μL to the 384-well small-volume microwell plate containing the cell lysate. The plate was covered with a plate sealer, incubated overnight at 25° C., and was read for fluorescence emission at two different wavelengths (665 nm and 615 nm) on the EnVision microplate reader counter. The emission ratio was imported into a GraphPadPrism software to fit the compound concentration (IC50) required for 50% inhibition of enzyme activity.
In this respect, IC50 values which are less than 0.05 μM were marked as “+++”, which are from 0.05 to 1.0 μM were marked as “++”, and which are greater than 1.0 and up to 100 μM were marked as “+”, and NA meant “not detected”.

Another test has as its target MNK2 (Homo sapiens, UniProt Q9HBH9). Kind of test: MNK biological enzyme assay (HTRF kinase assay), MNK2. The note with it: 1 ng/μl MNK2, 1 μM STK1 peptide, 100 μM ATP. Details: purchased ThermoFisher PV5607. It is filed as biochemical. The protocol:
as §1, §2, §3

Chain of MNK1 (Q9BUB5 whole entry): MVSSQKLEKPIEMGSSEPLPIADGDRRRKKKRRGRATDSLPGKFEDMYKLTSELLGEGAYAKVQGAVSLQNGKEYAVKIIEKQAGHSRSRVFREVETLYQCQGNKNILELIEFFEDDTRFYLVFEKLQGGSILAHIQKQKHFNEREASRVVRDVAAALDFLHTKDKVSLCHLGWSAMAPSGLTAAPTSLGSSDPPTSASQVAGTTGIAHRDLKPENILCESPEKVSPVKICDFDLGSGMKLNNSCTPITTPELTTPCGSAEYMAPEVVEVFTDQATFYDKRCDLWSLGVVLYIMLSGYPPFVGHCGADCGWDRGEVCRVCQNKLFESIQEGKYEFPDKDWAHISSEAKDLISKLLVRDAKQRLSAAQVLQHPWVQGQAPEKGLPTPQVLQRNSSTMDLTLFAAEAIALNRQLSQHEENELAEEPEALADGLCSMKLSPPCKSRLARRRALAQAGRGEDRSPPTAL
Chain of MNK2 (Q9HBH9 whole entry): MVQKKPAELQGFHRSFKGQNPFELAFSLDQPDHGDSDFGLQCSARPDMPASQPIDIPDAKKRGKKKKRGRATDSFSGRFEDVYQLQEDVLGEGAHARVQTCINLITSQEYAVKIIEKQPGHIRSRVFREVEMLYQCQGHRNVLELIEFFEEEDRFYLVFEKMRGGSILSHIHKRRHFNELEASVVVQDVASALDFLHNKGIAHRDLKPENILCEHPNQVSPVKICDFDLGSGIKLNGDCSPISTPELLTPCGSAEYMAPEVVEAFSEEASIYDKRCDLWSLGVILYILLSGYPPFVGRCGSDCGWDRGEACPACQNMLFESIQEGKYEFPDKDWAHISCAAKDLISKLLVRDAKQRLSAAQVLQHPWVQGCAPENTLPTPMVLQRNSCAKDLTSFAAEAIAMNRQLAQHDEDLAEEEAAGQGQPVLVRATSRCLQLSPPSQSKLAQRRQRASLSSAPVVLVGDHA

On to `Cc1c2c(c(=O)n3c1C(=O)NC31CCCCC1)Nc1cc(N)ncc1C2` [Compound 2, 8′-amino-12′-methyl-6′,11′-dihydro-2′H-spiro[cyclohexane-1,3′-imidazole[1′,5′:1,6]pyrido[3,4-B][1,6]naphthyridine]-1′,5′-dione hydrochloride], for which the IC50 at MNK1 is 10 to 100 nM; with Phosphorylated eIF4E, below 50 nM; on MNK2, below 10 nM. In addition, the inhibition at 1 µM against STK17A/DRAK1 turned out to be 62%. The dissociation constant (Kd) at STK17A/DRAK1 (dose response analysis, read-out: Kd of interaction with DRAK1) stood at 370 nM.
